Common to all, as to test: cAMP functional assay (HTRF) in HEK293 cells in presence of 0.1% casein
What all share (assay type): cell-based

Experiment [1] deals with T1, human GLP-1 receptor (GLP-1R) (Homo sapiens, UniProt P43220).
T1 construct: expressed in transfected cells; host or cells: HEK293
To be noted: HEK293 cells expressing human GLP-1R, geometric mean, read-out: hGLP1R cAMP Rel EC50 nM (SEM, n).

In experiment [2] the target is T2, human glucagon receptor (GcgR) (Homo sapiens, UniProt P47871).
T2 construct: expressed in transfected cells; host or cells: HEK293
To be noted: HEK293 cells expressing human GcgR, geometric mean, read-out: hGcgR cAMP Rel EC50 nM (SEM, n).

Experiment [3] addresses T3, human glucose-dependent insulinotropic peptide receptor (GIPR) (Homo sapiens, UniProt P48546).
T3 construct: expressed in transfected cells; host or cells: HEK293
T3 sequence (P48546 22-466): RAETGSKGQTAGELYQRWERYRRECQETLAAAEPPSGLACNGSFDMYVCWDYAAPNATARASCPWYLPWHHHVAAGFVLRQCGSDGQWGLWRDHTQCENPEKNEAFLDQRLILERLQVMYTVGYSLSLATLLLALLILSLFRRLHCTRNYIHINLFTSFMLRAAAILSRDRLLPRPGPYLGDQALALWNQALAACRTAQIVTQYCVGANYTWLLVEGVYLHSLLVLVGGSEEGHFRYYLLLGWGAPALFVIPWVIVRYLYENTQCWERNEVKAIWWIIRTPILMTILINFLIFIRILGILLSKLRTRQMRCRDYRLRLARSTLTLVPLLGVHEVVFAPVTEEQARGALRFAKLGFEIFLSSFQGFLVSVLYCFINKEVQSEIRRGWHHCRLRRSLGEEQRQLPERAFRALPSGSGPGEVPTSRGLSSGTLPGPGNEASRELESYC
As to conditions: HEK293 cells expressing human GIPR, geometric mean, read-out: hGIPR cAMP Rel EC50 nM (SEM, n).

SMILES strings stand for the structures. *1 amine or outer side, *2 acyl side, *3 side chain or, on linkers, in order; H or OH if unused. Where a SMILES comes first, the peptide text is derived from it. Side-chain parts run from the residue outwards. [ ]: non-standard residue; d: D form. The star is where a group is joined. C20 diacid = O=C(O)CCCCCCCCCCCCCCCCCCC(=O)*; γGlu = O=C(O)[C@H](CCC(=O)[*:2])N[*:1]; αMeF = C[C@](N)(Cc1ccccc1)C(=O)O; 4Pal = N[C@@H](Cc1ccncc1)C(=O)O; αMeL = CC(C)C[C@](C)(N)C(=O)O; Iva = CC[C@](C)(N)C(=O)O; AEEA = NCCOCCOCC(=O)O; Aib = CC(C)(N)C(=O)O

The source of these data is patent US12723063B2, “GIPR-agonist compounds” (Eli Lilly and Company, priority 2019, dated 2026).

T1 sequence (P43220 24-463): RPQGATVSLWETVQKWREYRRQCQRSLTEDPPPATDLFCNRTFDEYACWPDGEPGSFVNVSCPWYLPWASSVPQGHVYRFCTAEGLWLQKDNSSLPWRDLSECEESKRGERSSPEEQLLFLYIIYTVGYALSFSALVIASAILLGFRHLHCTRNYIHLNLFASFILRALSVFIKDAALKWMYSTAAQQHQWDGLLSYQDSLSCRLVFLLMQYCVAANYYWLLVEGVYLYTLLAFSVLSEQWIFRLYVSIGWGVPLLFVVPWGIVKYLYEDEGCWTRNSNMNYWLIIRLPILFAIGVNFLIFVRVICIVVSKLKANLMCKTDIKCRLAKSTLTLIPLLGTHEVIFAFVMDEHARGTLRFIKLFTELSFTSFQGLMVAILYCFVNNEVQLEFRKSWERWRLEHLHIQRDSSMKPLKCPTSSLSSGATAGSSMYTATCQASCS
T2 sequence (P47871 26-477): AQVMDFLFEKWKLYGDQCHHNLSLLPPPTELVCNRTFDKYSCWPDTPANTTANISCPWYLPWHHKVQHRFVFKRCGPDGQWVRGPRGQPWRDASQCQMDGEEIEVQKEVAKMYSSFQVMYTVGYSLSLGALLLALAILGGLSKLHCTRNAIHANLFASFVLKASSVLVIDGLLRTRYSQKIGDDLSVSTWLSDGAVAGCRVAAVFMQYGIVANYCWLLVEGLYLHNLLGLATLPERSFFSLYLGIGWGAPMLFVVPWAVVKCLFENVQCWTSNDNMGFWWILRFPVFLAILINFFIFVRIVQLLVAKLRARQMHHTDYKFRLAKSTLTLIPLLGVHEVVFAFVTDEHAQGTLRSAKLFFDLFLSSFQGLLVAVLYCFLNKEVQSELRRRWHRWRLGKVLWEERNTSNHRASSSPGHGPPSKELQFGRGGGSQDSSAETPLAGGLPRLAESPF

As to `CC[C@H](C)[C@H](NC(=O)[C@H](CO)NC(=O)[C@H](Cc1ccc(O)cc1)NC(=O)[C@H](CC(=O)O)NC(=O)[C@H](CO)NC(=O)[C@@H](NC(=O)[C@](C)(CC)NC(=O)[C@@H](NC(=O)CNC(=O)[C@H](CCC(=O)O)NC(=O)C(C)(C)NC(=O)[C@@H](N)Cc1ccc(O)cc1)[C@@H](C)O)[C@@H](C)CC)C(=O)N[C@@](C)(CC(C)C)C(=O)N[C@@H](CC(C)C)C(=O)N[C@@H](CC(=O)O)C(=O)N[C@@H](CCCCN)C(=O)N[C@@H](CCCCNC(=O)COCCOCCNC(=O)COCCOCCNC(=O)CC[C@H](NC(=O)CCCCCCCCCCCCCCCCCCC(=O)O)C(=O)O)C(=O)N[C@@H](Cc1c[nH]cn1)C(=O)N[C@@H](CCC(N)=O)C(=O)NC(C)(C)C(=O)N[C@@H](CC(=O)O)C(=O)N[C@@H](Cc1ccccc1)C(=O)N[C@H](C(=O)N[C@@H](CCC(=O)O)C(=O)N[C@@H](Cc1ccncc1)C(=O)N[C@@H](CC(C)C)C(=O)N[C@@H](CC(C)C)C(=O)N[C@@H](C)C(=O)NCC(=O)NCC(=O)N1CCC[C@H]1C(=O)N[C@@H](CO)C(=O)N[C@@H](CO)C(=O)NCC(=O)N[C@@H](C)C(=O)N1CCC[C@H]1C(=O)N1CCC[C@H]1C(=O)N1CCC[C@H]1C(=O)N[C@@H](CO)C(N)=O)C(C)C` [Example 55] (H-Y[Aib]EGT[Iva]ISDYSI[αMeL]LDKK([AEEA-AEEA-γGlu-C20 diacid])HQ[Aib]DFVE[4Pal]LLAGGPSSGAPPPS-NH2), the values for the EC50 in experiment [1], in experiment [2] and in experiment [3] were over 5000 nM, over 5000 nM and 0.017 nM, respectively.
In the case of `CC[C@H](C)[C@H](NC(=O)[C@H](Cc1ccccc1)NC(=O)[C@@H](NC(=O)CNC(=O)[C@H](CCC(=O)O)NC(=O)C(C)(C)NC(=O)[C@@H](N)Cc1ccc(O)cc1)[C@@H](C)O)C(=O)N[C@@H](CO)C(=O)N[C@@H](CC(=O)O)C(=O)N[C@@H](Cc1ccc(O)cc1)C(=O)N[C@@H](CO)C(=O)N[C@H](C(=O)N[C@@](C)(CC(C)C)C(=O)N[C@@H](CC(C)C)C(=O)N[C@@H](CC(=O)O)C(=O)N[C@@H](CCCCN)C(=O)N[C@@H](CCCCNC(=O)COCCOCCNC(=O)COCCOCCNC(=O)CC[C@H](NC(=O)CCCCCCCCCCCCCCCCCCC(=O)O)C(=O)O)C(=O)N[C@@H](Cc1c[nH]cn1)C(=O)N[C@@H](CCC(N)=O)C(=O)NC(C)(C)C(=O)N[C@@H](CC(=O)O)C(=O)N[C@@](C)(Cc1ccccc1)C(=O)N[C@H](C(=O)N[C@@H](CCC(=O)O)C(=O)N[C@@H](Cc1ccncc1)C(=O)N[C@@H](CC(C)C)C(=O)N[C@@H](CC(C)C)C(=O)N[C@@H](C)C(=O)NCC(=O)NCC(=O)N1CCC[C@H]1C(=O)N[C@@H](CO)C(=O)N[C@@H](CO)C(=O)NCC(=O)N[C@@H](C)C(=O)N1CCC[C@H]1C(=O)N1CCC[C@H]1C(=O)N1CCC[C@H]1C(=O)N[C@@H](CO)C(N)=O)C(C)C)[C@@H](C)CC` [Example 56], the EC50 – broadly, the midpoint of the concentration-response curve – in experiment [1] was over 5000 nM; in experiment [2], over 5000 nM; in experiment [3], 0.0169 nM.
`CC[C@H](C)[C@H](NC(=O)[C@H](Cc1ccccc1)NC(=O)[C@@H](NC(=O)CNC(=O)[C@H](CCC(=O)O)NC(=O)C(C)(C)NC(=O)[C@@H](N)Cc1ccc(O)cc1)[C@@H](C)O)C(=O)N[C@@H](CO)C(=O)N[C@@H](CC(=O)O)C(=O)N[C@@H](Cc1ccc(O)cc1)C(=O)N[C@@H](CO)C(=O)N[C@H](C(=O)N[C@@](C)(CC(C)C)C(=O)N[C@@H](CC(C)C)C(=O)N[C@@H](CC(=O)O)C(=O)N[C@@H](CCCCN)C(=O)N[C@@H](CCCCNC(=O)COCCOCCNC(=O)COCCOCCNC(=O)CC[C@H](NC(=O)CCCCCCCCCCCCCCCCCCC(=O)O)C(=O)O)C(=O)N[C@@H](Cc1c[nH]cn1)C(=O)N[C@@H](CCC(N)=O)C(=O)NC(C)(C)C(=O)N[C@@H](CCC(=O)O)C(=O)N[C@@H](Cc1ccccc1)C(=O)N[C@H](C(=O)N[C@@H](CCC(=O)O)C(=O)N[C@@H](Cc1ccncc1)C(=O)N[C@@H](CC(C)C)C(=O)N[C@@H](CC(C)C)C(=O)N[C@@H](C)C(=O)N[C@@H](CCC(N)=O)C(=O)NCC(=O)N1CCC[C@H]1C(=O)N[C@@H](CO)C(=O)N[C@@H](CO)C(=O)NCC(=O)N[C@@H](C)C(=O)N1CCC[C@H]1C(=O)N1CCC[C@H]1C(=O)N1CCC[C@H]1C(=O)N[C@@H](CO)C(N)=O)C(C)C)[C@@H](C)CC` [Example 57] (H-Y[Aib]EGTFISDYSI[αMeL]LDKK([AEEA-AEEA-γGlu-C20 diacid])HQ[Aib]EFVE[4Pal]LLAQGPSSGAPPPS-NH2): the EC50 is over 5000 nM in experiment [1], 886 nM in experiment [2] and 0.0177 nM in experiment [3].
Take `CC[C@H](C)[C@H](NC(=O)[C@H](Cc1ccccc1)NC(=O)[C@@H](NC(=O)CNC(=O)[C@H](CCC(=O)O)NC(=O)C(C)(C)NC(=O)[C@@H](N)Cc1ccc(O)cc1)[C@@H](C)O)C(=O)N[C@@H](CO)C(=O)N[C@@H](CC(=O)O)C(=O)N[C@@H](Cc1ccc(O)cc1)C(=O)N[C@@H](CO)C(=O)N[C@H](C(=O)N[C@@](C)(CC(C)C)C(=O)N[C@@H](CC(C)C)C(=O)N[C@@H](CC(=O)O)C(=O)N[C@@H](CCCCN)C(=O)N[C@@H](CCCCNC(=O)COCCOCCNC(=O)COCCOCCNC(=O)CC[C@H](NC(=O)CCCCCCCCCCCCCCCCCCC(=O)O)C(=O)O)C(=O)N[C@@H](Cc1c[nH]cn1)C(=O)N[C@@H](CCC(N)=O)C(=O)NC(C)(C)C(=O)N[C@@H](CCC(=O)O)C(=O)N[C@@H](Cc1ccccc1)C(=O)N[C@H](C(=O)N[C@@H](CCC(=O)O)C(=O)N[C@@H](Cc1ccncc1)C(=O)N[C@@H](CC(C)C)C(=O)N[C@@H](CC(C)C)C(=O)N[C@@H](C)C(=O)N[C@H](C(=O)NCC(=O)N1CCC[C@H]1C(=O)N[C@@H](CO)C(=O)N[C@@H](CO)C(=O)NCC(=O)N[C@@H](C)C(=O)N1CCC[C@H]1C(=O)N1CCC[C@H]1C(=O)N1CCC[C@H]1C(=O)N[C@@H](CO)C(N)=O)[C@@H](C)O)C(C)C)[C@@H](C)CC` [Example 58] (H-Y[Aib]EGTFISDYSI[αMeL]LDKK([AEEA-AEEA-γGlu-C20 diacid])HQ[Aib]EFVE[4Pal]LLATGPSSGAPPPS-NH2): the EC50 in experiment [1] is over 5000 nM; in experiment [2], over 5000 nM; in experiment [3] it was 0.0183 nM.
For the molecule `CC[C@H](C)[C@H](NC(=O)[C@H](Cc1ccccc1)NC(=O)[C@@H](NC(=O)CNC(=O)[C@H](CCC(=O)O)NC(=O)C(C)(C)NC(=O)[C@@H](N)Cc1ccc(O)cc1)[C@@H](C)O)C(=O)N[C@@H](CO)C(=O)N[C@@H](CC(=O)O)C(=O)N[C@@H](Cc1ccc(O)cc1)C(=O)N[C@@H](CO)C(=O)N[C@H](C(=O)N[C@@](C)(CC(C)C)C(=O)N[C@@H](CC(C)C)C(=O)N[C@@H](CC(=O)O)C(=O)N[C@@H](CCCCN)C(=O)N[C@@H](CCCCNC(=O)COCCOCCNC(=O)COCCOCCNC(=O)CC[C@H](NC(=O)CCCCCCCCCCCCCCCCCCC(=O)O)C(=O)O)C(=O)N[C@@H](Cc1c[nH]cn1)C(=O)N[C@@H](CCC(N)=O)C(=O)NC(C)(C)C(=O)N[C@@H](CCC(=O)O)C(=O)N[C@@H](Cc1ccccc1)C(=O)N[C@H](C(=O)N[C@@H](CCC(=O)O)C(=O)N[C@@H](Cc1ccncc1)C(=O)N[C@@H](CC(C)C)C(=O)N[C@@H](CC(C)C)C(=O)N[C@@H](C)C(=O)N[C@@H](C)C(=O)NCC(=O)N1CCC[C@H]1C(=O)N[C@@H](CO)C(=O)N[C@@H](CO)C(=O)NCC(=O)N[C@@H](C)C(=O)N1CCC[C@H]1C(=O)N1CCC[C@H]1C(=O)N1CCC[C@H]1C(=O)N[C@@H](CO)C(N)=O)C(C)C)[C@@H](C)CC` [Example 59], the EC50 is over 5000 nM in experiment [1], over 5000 nM in experiment [2] and 0.0202 nM in experiment [3].
`CC[C@H](C)[C@H](NC(=O)[C@H](CO)NC(=O)[C@H](Cc1ccc(O)cc1)NC(=O)[C@H](CC(=O)O)NC(=O)[C@H](CO)NC(=O)[C@@H](NC(=O)[C@](C)(Cc1ccccc1)NC(=O)[C@@H](NC(=O)CNC(=O)[C@H](CCC(=O)O)NC(=O)C(C)(C)NC(=O)[C@@H](N)Cc1ccc(O)cc1)[C@@H](C)O)[C@@H](C)CC)C(=O)N[C@@](C)(CC(C)C)C(=O)N[C@@H](CC(C)C)C(=O)N[C@@H](CC(=O)O)C(=O)N[C@@H](CCCCN)C(=O)N[C@@H](CCCCNC(=O)COCCOCCNC(=O)COCCOCCNC(=O)CC[C@H](NC(=O)CCCCCCCCCCCCCCCCCCC(=O)O)C(=O)O)C(=O)N[C@@H](Cc1c[nH]cn1)C(=O)N[C@@H](CCC(N)=O)C(=O)NC(C)(C)C(=O)N[C@@H](CCC(=O)O)C(=O)N[C@@H](Cc1ccccc1)C(=O)N[C@H](C(=O)N[C@@H](CCC(=O)O)C(=O)N[C@@H](Cc1ccncc1)C(=O)N[C@@H](CC(C)C)C(=O)N[C@@H](CC(C)C)C(=O)N[C@@H](C)C(=O)N[C@@H](CCC(N)=O)C(=O)NCC(=O)N1CCC[C@H]1C(=O)N[C@@H](CO)C(=O)N[C@@H](CO)C(=O)NCC(=O)N[C@@H](C)C(=O)N1CCC[C@H]1C(=O)N1CCC[C@H]1C(=O)N1CCC[C@H]1C(=O)N[C@@H](CO)C(N)=O)C(C)C` [Example 60] (H-Y[Aib]EGT[αMeF]ISDYSI[αMeL]LDKK([AEEA-AEEA-γGlu-C20 diacid])HQ[Aib]EFVE[4Pal]LLAQGPSSGAPPPS-NH2): the EC50 in experiment [1] is 71 nM; in experiment [2], over 5000 nM; in experiment [3], 0.0369 nM.
